Test results reported in patent publication US20020137779A1, “Use of L-2-oxothiazolidine-4-carboxylic acid for the treatment of type 2 diabetes” (Advanced Biochemicals Inc., priority 2001, published 2002).

Assays:
[1] = system: type 2 diabetes mice (C57BL/KsJ-db/db Jcl); test: blood glucose levels after glucose intake, single oral administration (Example 3); assay type: in vivo, mouse; settings: for blood glucose level / decrease of blood glucose level vs control group: 30 min after glucose intake
Protocol: Third step; Determining the abilities of lowering blood glucose level and increasing insulin secretion ability following glucose loading, by administering a single dose of 8-80 mg/kg of L-2-oxothiazolidine-4-carboxylic acid to a type 2 diabetes mouse, Fourth step; Examining the effect of long term administration of L-2-oxothiazolidine-4-carboxylic acid on lowering blood glucose levels,
Under the same breeding condition as in EXAMPLE 2, no feed but water was given to 7 week old type 2 diabetes mice (C57BL/KsJ-db/db Jel, Clea, Japan) for 13 hours. 0.2 ml of PBS was orally given to the control group(5 mice) using feeding needle, and 8-80 mg/kg of L-2-oxothiazolidine-4-carboxylic acid dissolved in 0.2 ml of PBS was orally administered to the experimental group(5 mice). After 5 hours of drug administration, 1 g/kg of glucose (Sigma, USA) was intraperitoneally injected and the mice were maintained for 30 to 120 minutes. The blood glucose levels of type 2 diabetes mice at various time points were measured by the glucose oxidase method using a glucose analyzer(One-touch Basic, Lifescan, USA), and serum insulin levels were determined using a radioimmunoassay, as described in EXAMPLE 2.

[2] = system: type 2 diabetes mice (C57BL/KsJ-db/db Jcl); test: blood glucose levels after oral administration for 1-4 weeks (Example 4); assay type: in vivo, mouse; settings: for duration of the blood glucose lowering effect: after glucose intake
Protocol: The chemical L-2-oxothiazolidine-4-carboxylic acid was orally administered to diabetes mice(C57BL/KsJ-db/db Jcl) with a single dose of 3.0-400 mg/kg once in the state of empty stomach or 40-80 mg/kg twice a day for 1-4 weeks continuously.
(§1) Seven week old type 2 diabetes mice were maintained as in EXAMPLE 2. 0.2 ml of PBS (pH 7.4) was given to a control group twice a day for 1-4 weeks, and 40-80 mg/kg of L-2-oxothiazolidine-4-carboxylic acid dissolved in 0.2 ml of PBS of which pH was adjusted to 7.4 with 3 N NaOH(Junsei, Japan) was orally administered to an experimental group.
The results of blood glucose levels shown in FIG. 7 were obtained, after 40-80 mg/kg of L-2-oxothiazolidine-4-carboxylic acid was administered to type 2 diabetes mice twice a day for two weeks and after glucose was subsequently given, as described in […]

[3] = body weight during four weeks of oral administration (Example 4); assay type: in vivo, mouse; settings: 40-80 mg/kg orally for four weeks; measured at one, two and four week points
Protocol: as §1

[4] = system: type 2 diabetes mice (C57BL/KsJ-db/db Jcl); test: blood insulin concentration after oral administration for four weeks (Example 5); assay type: in vivo, mouse; settings: 80 mg/kg per day for four weeks
Protocol: Fifth step Determining the ability of insulin secretion after oral administration of L-2-oxothiazolidine-4-carboxylic acid for 4 weeks to a 7 week old type 2 diabetes mouse, and
Seven week old type 2 diabetes mice were maintained as in EXAMPLE 2. 0.2 ml of PBS (pH 7.4) was given to a control group(4 mice) twice a day for four weeks, and 80 mg/kg of L-2-oxothiazolidine-4-carboxylic acid dissolved in 0.2 ml of PBS of which pH was adjusted to 7.4 with 3 N NaOH(Junsei, Japan), was orally administered to an experimental group(4 mice). Five hours after the drug was finally administered, 1 g/kg of glucose was intraperitoneally injected. Tails were cut, blood samples were taken from the tails at 60 min. time intervals until 180 min., the samples were left at room temperature for three hours, sera were collected, and the insulin concentration was measured by radioimmunoassay.

[5] = ED50 by linear regression method; assay type: in vivo; settings: calculated by linear regression method; read-out: ED50 (50% of maximum effective dose)
Description: ED50 is defined as 50% of maximum effective dose calculated by linear regression method. The term “treat” refers to the ability of the compounds to either relieve, alleviate, or slow the progression of the patient's disease.

[6] = 40 mg/kg for one week, 60 min after glucose intake
[7] = 40 mg/kg for two weeks, 60 min after glucose addition
[8] = 40 mg/kg for two weeks, 120 min after glucose intake
[9] = 80 mg/kg for four weeks, 120 min after glucose intake
[10] = 80 mg/kg for four weeks, fasted state (13 hours)
[11] = 80 mg/kg for one week, 60 min after glucose intake
[12] = 80 mg/kg for one week, 120 min after glucose intake
[13] = 80 mg/kg for one week, fasted state (13 hours)
[14] = 80 mg/kg for two weeks, 60 min after glucose addition
[15] = 80 mg/kg for two weeks, 120 min after glucose intake

## O=C1NC(C(=O)O)CS1 [OTC, L-2-oxothiazolidine-4-carboxylic acid]
[1]; 40 mg/kg single oral dose
  blood glucose level: 295 ± 8.5 mg/dL
  decrease of blood glucose level vs control group: 34.27%
[1]; 80 mg/kg single oral dose
  blood glucose level: 269 ± 6.85 mg/dL
  decrease of blood glucose level vs control group: 40.01%
[1]; 40-80 mg/kg single oral dose
  duration of the lowering effect of blood glucose levels after the intake of glucose: about 60 min
[2]; 40 mg/kg for four weeks, 180 min after glucose intake
  blood glucose level: 50.50 ± 44.21 mg/dL
[2]; [6]
  blood glucose level: 507.50 ± 52.81 mg/dL
  decrease of blood glucose level vs control group: 16.8%
[2]; [7]
  blood glucose level: 699.00 ± 58.91 mg/dL
  lowering effect of blood glucose levels compared to the control group: 15.83%
[2]; [8]
  blood glucose level: 599.50 ± 52.46 mg/dL
  lowering effect of blood glucose levels compared to the control group: 22.2%
[2]; 40 mg/kg for two weeks, fasted for 13 hours
  blood glucose level: 306.30 ± 24.06 mg/dL
[2]; [9]
  blood glucose level: 539 ± 23.60 mg/dL
  lowering effect of blood glucose levels compared to the control group: 38.8%
[2]; [10]
  blood glucose level: 297.00 ± 26.51 mg/dL
  more effective in lowering blood glucose levels than the control group: 32.5%
[2]; [11]
  blood glucose level: 277.50 ± 40.89 mg/dL
  decrease of blood glucose level vs control group: 54.51%
[2]; [12]
  blood glucose level: 158.00 ± 28.33 mg/dL
  decrease of blood glucose level vs control group: 72.11%
[2]; [13]
  blood glucose level: 116.00 ± 119.74 mg/dL
  blood glucose level relative to the control group: 52.07%
[2]; [14]
  blood glucose level: 477.50 ± 58.91 mg/dL
  blood glucose level relative to the control group: 42.50%
[2]; [15]
  blood glucose level: 398.00 ± 28.33 mg/dL
  lowering effect of blood glucose levels compared to the control group: 48.81%
[2]; 80 mg/kg for two weeks, fasted for 13 hours
  blood glucose level: 301.50 ± 12.2 mg/dL
[2]; 40-80 mg/kg for four weeks
  duration of the blood glucose lowering effect: about 180 min
[2]; 40-80 mg/kg for one week
  duration of the blood glucose lowering effect: about 180 minutes
[2]; 40-80 mg/kg for two weeks
  duration of the blood glucose lowering effect: about 180 min
[2]; 40-80 mg/kg for two weeks, fasted for 13 hours
  increase of lowering effect of blood glucose levels compared to the control group: 11.5%
[3]
  weight of the mice: no weight difference
[4]
  duration of the effect on insulin concentration: about 120 min
[4]; 120 min after glucose intake
  insulin concentration: 1285.04 ± 135.60 pmol/L
[4]; after 120 min
  increase of insulin concentration compared to the control group: 4.93 times
[4]; fasted state
  insulin concentration: 450 ± 43.50 pmol/L
[5]
  ED50: 15 mg/kg
